Laboratory results reported in patent US6528510B1, “HIV protease inhibitors” (Warner-Lambert Company, priority 1998, dated 2003).
pEC50, pKi: −log10 of the molar value. Where two headings read alike, the source gives them in different places.

Key:
[1] = biological target: T1, Recombinant HIV-1 protease (Human immunodeficiency virus type 1 group M subtype B, UniProt P04585); assay: HIV protease assay (Ki determination, HPLC readout of substrate III cleavage); type: biochemical
T1 construct: Recombinant HIV-1 protease (>96% purity); purchased Bachem Bioscience, Inc. (King of Prussia, Pa.)
Experimental: Recombinant HIV-1 protease (>96% purity) and HIV protease substrate III (the undecapeptide H-His-Lys-Ala-Arg-Val-Leu-Nph-Glu-Ala-Nle-Ser-NH2, 97% purity) were purchased from Bachem Bioscience, Inc. (King of Prussia, Pa.).
The methods employed follow the procedures of Tummino, et al., Archives of Biochemistry and Biophysics, 1995;316:523). […] (total volume, […]). […] The final inhibitor concentrations used were 0 (0.1, 0.2, in some experiments), 0.5, 1, 2, 5, 10, 20, 50, and 100 μM. The solution was mixed, incubated for 5 minutes and the reaction quenched by addition of trifluoracetic acid, 2% final. The (leu-p-nitro-phe) bond of the substrate is cleaved by the enzyme and substrate arid products separated by reverse-phase HPLC. Absorbance was measured at 220 nm, peak areas determined, and percentage conversion to product used to calculate percentage control (=[% conversion (+inhibitor)/% conversion (−inhibitor)]×100).

[2] = system: HIV infected lymphocyte derived CEM cells; assay: Cellular infection assay in CEM cells, XTT cytopathic procedure (EC50); conditions: for TI (therapeutic index, TC50/EC50): CEM cells; for pEC50: Human immunodeficiency virus 1, CCRF-CEM, read-out: Antiviral Efficacy EC50
Experimental: (§1) Compound concentrations were 0.32, 1, 3.2, 10, 32, and 100 uM.

[3] = Cellular toxicity in uninfected CEM cells, XTT (TC50); conditions: human, uninfected CEM cells (lymphocyte derived)
Experimental: as §1

[4] = recombinant HIV-1 protease, read-out: Inhib of HIV Protease KI

Cc1cnc(CCC2(C(C)C)CC(O)=C(Sc3cc(C)c(CO)cc3C(C)(C)C)C(=O)O2)s1 (racemic) [Example 28, 3-(2-tert-Butyl-4-hydroxymethyl-5-methyl-phenylsulfanyl)-4-hydroxy-6-isopropyl-6-[2-(5-methyl-thiazol-2-yl)-ethyl]-5,6-dihydro-pyran-2-one]
pKi [1]: 9.62
TI (therapeutic index, TC50/EC50) [2]: 120
pEC50 [2]: 5.72
CC50 [3]: 229000 nM

Cc1cc(SC2=C(O)CC(CCc3csc(C(C)C)n3)(C(C)C)OC2=O)c(C(C)(C)C)cc1CO (racemic) [Example 32, 3-(2-tert-Butyl-4-hydroxymethyl-5-methyl-phenylsulfanyl)-4-hydroxy-6-isopropyl-6-[2-(2-isopropyl-thiazol-4-yl)-ethyl]-5,6-dihydro-pyran-2-one]
pKi [1]: 8.80
TI (therapeutic index, TC50/EC50) [2]: 4
pEC50 [2]: 4.64
CC50 [3]: 91000 nM

Cc1cc(SC2=C(O)CC(CCc3scnc3C(C)C)(C(C)C)OC2=O)c(C(C)(C)C)cc1CO (racemic) [Example 33, 3-(2-tert-Butyl-4-hydroxymethyl-5-methyl-phenylsulfanyl)-4-hydroxy-6-isopropyl-6-[2-(4-isopropyl-thiazol-5-yl)-ethyl]-5,6-dihydro-pyran-2-one]
TI (therapeutic index, TC50/EC50) [2]: 72
pEC50 [2]: 5.85
CC50 [3]: 101000 nM

Cc1cc(SC2=C(O)CC(CCc3ccsc3)(C(C)C)OC2=O)c(C(C)(C)C)cc1N (racemic) [Example 35, 3-(4-Amino-2-tert-butyl-5-methyl-phenylsulfanyl)-4-hydroxy-6-isopropyl-6-(2-thiophen-3-yl-ethyl)-5,6-dihydro-pyran-2-one]
pKi [1]: 9.06
TI (therapeutic index, TC50/EC50) [2]: 48
pEC50 [2]: 5.82
CC50 [3]: 72000 nM

Cc1cc(SC2=C(O)CC(CCc3ccc(CO)s3)(C(C)C)OC2=O)c(C(C)(C)C)cc1O (racemic) [Example 37, 3-(2-tert-Butyl-4-hydroxy-5-methyl-phenylsulfanyl)-4-hydroxy-6-[2-(5-hydroxymethyl-thiophen-2-yl)-ethyl]-6-isopropyl-5,6-dihydro-pyran-2-one]
pKi [1]: 9.43
TI (therapeutic index, TC50/EC50) [2]: 24
pEC50 [2]: 5.38
CC50 [3]: 100000 nM

Cc1cc(SC2=C(O)CC(CCc3ccc(CO)s3)(C(C)C)OC2=O)c(C(C)(C)C)cc1N (racemic) [Example 38, 3-(4-Amino-2-tert-butyl-5-methyl-phenylsulfanyl)-4-hydroxy-6-[2-(5-hydroxymethyl-thiophen-2-yl)-ethyl]-6-isopropyl-5,6-dihydro-pyran-2-one]
pKi [1]: 9.48
TI (therapeutic index, TC50/EC50) [2]: 113
pEC50 [2]: 5.96
CC50 [3]: 124000 nM

Cc1cc(SC2=C(O)CC(CCc3cc[nH]n3)(C(C)C)OC2=O)c(C(C)(C)C)cc1CO (racemic) [Example 40, 3-(2-tert-Butyl-4-hydroxymethyl-5-methyl-phenylsulfanyl)-4-hydroxy-6-isopropyl-6-[2-(1H-pyrazol-3-yl)-ethyl]-5,6-dihydro-pyran-2-one]
pKi [1]: 9.55
TI (therapeutic index, TC50/EC50) [2]: >57
pEC50 [2]: 5.25
CC50 [3]: > 320000 nM

Cc1cc(SC2=C(O)CC(CCc3cncnc3)(C(C)C)OC2=O)c(C(C)(C)C)cc1CO (racemic) [Example 42, 3-(2-tert-Butyl-4-hydroxymethyl-5-methyl-phenylsulfanyl)-4-hydroxy-6-isopropyl-6-(2-pyrimidin-5-yl-ethyl)-5,6-dihydro-pyran-2-one]
TI (therapeutic index, TC50/EC50) [2]: >159
pEC50 [2]: 5.89
CC50 [3]: > 200000 nM

Cc1ccc(C(C)(C)C)c(SC2=C(O)CC(CCc3ccc(CO)s3)(C(C)C)OC2=O)c1 (racemic) [Example 55, 3-(2-tert-Butyl-5-methyl-phenylsulfanyl)-4-hydroxy-6-[2-(5-hydroxymethyl-thiophen-2-yl)-ethyl]-6-isopropyl-5,6-dihydro-pyran-2-one]
pKi [1]: 8.77
TI (therapeutic index, TC50/EC50) [2]: 8
pEC50 [2]: 5.08
CC50 [3]: 66000 nM

Cc1cc(SC2=C(O)CC(CCC3CCCO3)(C(C)C)OC2=O)c(C(C)(C)C)cc1N (racemic) [Example 56, 3-(4-Amino-2-tert-butyl-5-methyl-phenylsulfanyl)-4-hydroxy-6-isopropyl-6-[2-(tetrahydro-furan-2-yl)-ethyl]-5,6-dihydro-pyran-2-one]
pKi [1]: 7.96
TI (therapeutic index, TC50/EC50) [2]: 21
pEC50 [2]: 5.00
CC50 [3]: 210000 nM

Cc1cc(SC2=C(O)CC(CCc3ccsc3)(C(C)C)OC2=O)c(C(C)(C)C)cc1NS(=O)(=O)c1ccc(C(F)(F)F)cn1 (racemic) [Example 59, 5-Trifluoromethyl-pyridine-2-sulfonic acid {5-tert-butyl-4-[4-hydroxy-6-isopropyl-2-oxo-6-(2-thiophen-3-yl-ethyl)-5,6-dihydro-2H-pyran-3-ylsulfanyl]-2-methyl-phenyl}-amide]
pKi [1]: 10.10
TI (therapeutic index, TC50/EC50) [2]: 110
pEC50 [2]: 6.22
CC50 [3]: 66000 nM

Cc1cc(SC2=C(O)CC(CCc3ccc4[nH]ccc4c3)(C(C)C)OC2=O)c(C(C)(C)C)cc1CO (racemic) [Example 61, 3-(2-tert-Butyl-4-hydroxymethyl-5-methyl-phenylsulfanyl)-4-hydroxy-6-[2-(1H-indol-5-yl)-ethyl]-6-isopropyl-5,6-dihydro-pyran-2-one]
pKi [1]: 9.01
TI (therapeutic index, TC50/EC50) [2]: 68
pEC50 [2]: 6.17
CC50 [3]: 46000 nM

Cc1cc(SC2=C(O)CC(CCc3sccc3C)(C(C)C)OC2=O)c(C(C)(C)C)cc1N (racemic) [Example 65, 3-(4-Amino-2-tert-butyl-5-methyl-phenylsulfanyl)-4-hydroxy-6-isopropyl-6-[2-(3-methyl-thiophen-2-yl)-ethyl]-5,6-dihydro-pyran-2-one]
pKi [1]: 8.92
TI (therapeutic index, TC50/EC50) [2]: 54
pEC50 [2]: 5.96
CC50 [3]: 60000 nM

CC(C)C1(CCc2ccsc2)CC(O)=C(Sc2cc3sc(N)nc3cc2C(C)(C)C)C(=O)O1 (racemic) [Example 82]
pKi [1]: 8.96
TI (therapeutic index, TC50/EC50) [2]: 109
pEC50 [2]: 6.15
CC50 [3]: 76000 nM

Cc1c(F)cccc1CCC1(C(C)C)CC(O)=C(Sc2cc3sc(N)nc3cc2C(C)(C)C)C(=O)O1 (racemic) [Example 84, 3-(2-Amino-5-tert-butyl-benzothiazol-6-ylsulfanyl)-6-[2-(3-fluoro-2-methyl-phenyl)-ethyl]-4-hydroxy-6-isopropyl-5,6-dihydro-pyran-2-one]
pKi [1]: 9.10
TI (therapeutic index, TC50/EC50) [2]: 198
pEC50 [2]: 6.33
CC50 [3]: 93000 nM

Cc1cc(SC2=C(O)CC(CCc3csc(N)n3)(C(C)C)OC2=O)c(C(C)(C)C)cc1CO (racemic) [Example 89, 6-[2-(2-Amino-thiazol-4-yl)-ethyl]-3-(2-tert-butyl-4-hydroxymethyl-5-methyl-phenylsulfanyl)-4-hydroxy-6-isopropyl-5,6-dihydro-pyran-2-one]
pKi [1]: 9.02
TI (therapeutic index, TC50/EC50) [2]: >57
pEC50 [2]: 5.46
CC50 [3]: > 200000 nM

Cc1cc(SC2=C(O)CC(CCc3ccncc3)(C(C)C)OC2=O)c(C(C)(C)C)cc1CO (stereo not shown) [Example 1, 3-(2-tert-Butyl-4-hydroxymethyl-5-methyl-phenylsulfanyl)-4-hydroxy-6-isopropyl-6-(2-pyridin-4-yl-ethyl)-5,6-dihydro-pyran-2-one]
pKi [1, 4]: 8.82
TI (therapeutic index, TC50/EC50) [2]: 197
pEC50 [2]: 5.82
CC50 [3]: 296000 nM

Cc1cc(SC2=C(O)CC(CCc3cccnc3)(C(C)C)OC2=O)c(C(C)(C)C)cc1CO (stereo not shown) [Example 2, 3-(2-tert-Butyl-4-hydroxymethyl-5-methyl-phenylsulfanyl)4-hydroxy-6-isopropyl-6-(2-pyridin-3-yl-ethyl)-5,6-dihydro-pyran-2-one]
pKi [1, 4]: 9.05

Cc1cc(SC2=C(O)C[C@@](CCc3ccccc3)(C(C)C)OC2=O)c(C(C)C)c2sc(N)nc12 [Example 17, (S)-3-(2-Amino-7-isopropyl-4-methyl-benzothiazol-6-yl-sulfanyl)-4-hydroxy-6-isopropyl-6-phenethyl-5,6-dihydro-pyran-2-one]
TI (therapeutic index, TC50/EC50) [2]: 16
pEC50 [2]: 5.57
CC50 [3]: 42000 nM

Cc1cc(SC2=C(O)C[C@@](CCc3ccc(O)cc3)(C(C)C)OC2=O)c(C(C)C)c2sc(N)nc12 [Example 18, (S)-3-(2-Amino-7-isopropyl-4-methyl-benzothiazol-6-ylsulfanyl)-4-hydroxy-6-[2-(4-hydroxyl-phenyl)-ethyl]-6-isopropyl-5,6-dihydro-pyran-2-one]
TI (therapeutic index, TC50/EC50) [2]: 105
pEC50 [2]: 5.96
CC50 [3]: 117000 nM

Cc1cc(SC2=C(O)CC(CCc3scnc3C)(C(C)C)OC2=O)c(C(C)(C)C)cc1CO (stereo not shown) [Example 24, 3-(2-tert-Butyl-4-hydroxymethyl-5-methyl-phenylsulfanyl)-4-hydroxy-6-isopropyl-6-[2-(4-methyl-thiazol-5-yl)-ethyl]-5,6-dihydro-pyran-2-one]
TI (therapeutic index, TC50/EC50) [2]: 443
pEC50 [2]: 6.43
CC50 [3]: 164000 nM
